The target in data set [1] is T1, aromatase (human placental microsomes) (Homo sapiens, UniProt P11511).
T1 construct: protein (2 mg) from human placental microsomes; from tissue; host or cells: human placenta (microsomal fraction)
T1 sequence (P11511 1-503): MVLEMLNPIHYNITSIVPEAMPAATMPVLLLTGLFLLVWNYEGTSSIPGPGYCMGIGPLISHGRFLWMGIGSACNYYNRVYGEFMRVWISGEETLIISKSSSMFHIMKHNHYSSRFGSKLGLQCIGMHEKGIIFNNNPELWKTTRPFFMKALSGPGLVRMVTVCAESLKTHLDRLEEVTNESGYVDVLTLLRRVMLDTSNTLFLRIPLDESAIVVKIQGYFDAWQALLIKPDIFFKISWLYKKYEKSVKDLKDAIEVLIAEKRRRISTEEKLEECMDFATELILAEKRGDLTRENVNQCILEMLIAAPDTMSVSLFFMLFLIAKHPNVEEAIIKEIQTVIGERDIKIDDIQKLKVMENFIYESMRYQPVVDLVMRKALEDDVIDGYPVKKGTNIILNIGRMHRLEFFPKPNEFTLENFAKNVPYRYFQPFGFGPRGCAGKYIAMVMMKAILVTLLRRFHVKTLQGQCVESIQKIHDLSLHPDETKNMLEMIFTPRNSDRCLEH
Nature of the data set: human placental aromatase assay. It is filed as biochemical.

Data set [2] relates to human fibroblast (BJ) normal cell line. Briefly: cytotoxicity against BJ normal cell line.

Read-outs that look alike come from different tables or passages of the source.

Consider `C[C@]12CCC(=O)C(O)=C1CC[C@@H]1[C@@H]2CC[C@]2(C)C(=O)CC[C@@H]12` [Compound 1, Formestane], for which inhibition in data set [1] was half-maximal at 0.335 ± 0.011 µM (IC50).
On the same count and under the same terms, then `C[C@]12CC[C@H]3[C@@H]([C@H](O)C[C@@]4(O)[C@H](O)C(=O)CC[C@]34C)[C@@H]1CCC2=O` [Compound 2, 4α,5α,7α-Trihydroxyandrostane-3,17-dione], with 5.23 ± 0.094 µM.
As for `C[C@]12CC[C@H](O)C(=O)C1C[C@H](O)[C@@H]1[C@@H]2CC[C@]2(C)C(=O)CC[C@@H]12` (stereo partly drawn) [Compound 3, 3β,7β-Dihydroxyandrostane-4,17-dione], in data set [1] (human placental microsomes, 10 μM testosterone, estradiol by UPLC, read-out: IC50 aromatase inhibition), the IC50 – broadly, the midpoint of a concentration-inhibition curve – is 1.37 ± 0.029 µM.
`C[C@]12CC[C@H]3[C@@H]([C@@H](O)C[C@@]4(O)C(=O)[C@@H](O)CC[C@]34C)[C@@H]1CCC2=O` [Compound 4, 3β,5α,7β-Trihydroxyandrostane-4,17-dione] registered an IC50 in data set [1] of 0.386 ± 0.072 µM.
As to `C[C@]12C=CC(=O)C(O)=C1CC[C@@H]1[C@@H]2[C@H](O)C[C@]2(C)C(=O)CC[C@@H]12` [Compound 5, 4,11α-Dihydroxyandrosta-1,4-diene-3,17-dione], the IC50 in data set [1] came out at 34.3 ± 0.532 µM. In addition, the “cytotoxicity to BJ normal cell line” value in data set [2] is reported as “non-cytotoxic”.

The values above are taken from patent US20210380630A1, “Bio-catalyzed Synthesis of New Aromatase Inhibitors through Structural Modifications of Anticancer Drug Formestane” (priority 2021, published 2021).
